# Target: CDK2 (human) (UniProt P24941)
# Experiment: Enzyme Assay
# Conditions: not given
row,IC50,Compound
1,55 nM,O=C1Nc2ncc(Br)cc2/C1=C/Nc1ccc2ncccc2c1
2,55 nM,CCOC(=O)c1cnc2c(c1)/C(=C/Nc1ccc3cn[nH]c3c1)C(=O)N2
3,550 nM,O=C1Nc2ncc(-c3ccsc3)cc2/C1=C/Nc1ccc2cn[nH]c2c1
4,55 nM,O=C1Nc2ncc(Br)cc2/C1=C/Nc1ccc2cn[nH]c2c1
5,55 nM,CCOC(=O)c1cnc2c(c1)/C(=C/Nc1ccc(S(N)(=O)=O)cc1)C(=O)N2
6,5500 nM,O=C1Nc2ncc(-c3ccco3)cc2/C1=C/Nc1ccc2cn[nH]c2c1
7,550 nM,CCOC(=O)c1cnc2c(c1)/C(=C/Nc1ccc3ncccc3c1)C(=O)N2
8,550 nM,NS(=O)(=O)c1ccc(N/C=C2\C(=O)Nc3ncccc32)cc1

# The next lines start with the compound.
row,Compound,IC50
1,NS(=O)(=O)c1ccc(N/C=C2\C(=O)Nc3ncc(-c4ccco4)cc32)cc1,55 nM
2,NS(=O)(=O)c1ccc(N/C=C2\C(=O)Nc3ncc(-c4ccccc4)cc32)cc1,5500 nM
3,Cc1cc(=O)[nH]n1-c1ccc(N/C=C2\C(=O)Nc3ccc4ncsc4c32)cc1,30 nM
4,NS(=O)(=O)c1ccc(N/C=C2\C(=O)Nc3nc(Cl)ccc32)cc1,550 nM
5,O=C1Nc2nc(Cl)ccc2/C1=C/Nc1ccc2cn[nH]c2c1,550 nM
6,O=C1Nc2ccc3ccncc3c2/C1=C/Nc1ccc(CCO)cc1,75 nM
7,NS(=O)(=O)c1ccc(N/C=C2\C(=O)Nc3ncc(-c4ccsc4)cc32)cc1,550 nM
8,NC(=O)c1ccc(N/C=C2\C(=O)Nc3ccc4ncsc4c32)cc1,75 nM
9,NS(=O)(=O)c1ccc(N/C=C2\C(=O)Nc3cnccc32)cc1,55 nM
10,NS(=O)(=O)c1ccc(N/C=C2\C(=O)Nc3ncc(Br)cc32)cc1,55 nM
11,O=C1Nc2ccc3ccncc3c2/C1=C/Nc1ccc(N2CCOCC2)cc1,> 100 nM
12,NS(=O)(=O)c1ccc(N/C=C2/C(=O)Nc3ccncc32)cc1.NS(=O)(=O)c1ccc(N/C=C2\C(=O)Nc3ccncc32)cc1,55 nM
13,O=C1Nc2ccc3ccncc3c2/C1=C/Nc1ccc(Cc2ccncc2)cc1,30 nM

# Target: CDK2 (human) (UniProt P24941)
# Experiment: Cell-Based Assay
# Conditions: hdf-3
row,IC50,Compound
1,350 nM,NS(=O)(=O)c1ccc(NN=C2C(=O)Nc3ccc(-c4cnco4)cc32)cc1

# Same assay, conditions: mda-mb-468
row,IC50,Compound
1,350 nM,NS(=O)(=O)c1ccc(NN=C2C(=O)Nc3ccc(-c4cnco4)cc32)cc1
2,> 5000 nM,CN(C)S(=O)(=O)c1ccc(N/C=C2\C(=O)Nc3ccc(-c4cnco4)cc32)cc1
3,300 nM,CNS(=O)(=O)Cc1ccc(NN=C2C(=O)Nc3cc(C)c(O)c(C)c32)cc1

# Same assay, conditions: rko
row,IC50,Compound
1,350 nM,NS(=O)(=O)c1ccc(NN=C2C(=O)Nc3ccc(-c4cnco4)cc32)cc1

# Target: CDK2 (human) (UniProt P24941)
# Experiment: Cell-Based Assay
# Conditions: rko
row,IC50,Compound
1,350 nM,NS(=O)(=O)c1ccc(NN=C2C(=O)Nc3ccc(-c4cnco4)cc32)cc1

# Source: the Kinase Knowledgebase extract (Sharma et al. 2016)
